Key:
GAL4-PPARα LBD = molecular target: T1, GAL4-PPARα LBD (Homo sapiens, UniProt Q07869); assay: GAL4-PPARα LBD luciferase reporter assay in HEK293 cells; type: cell-based; conditions: GAL4-PPARα LBD, calculated from luciferase activity with Quest Graph EC50 Calculator
T1 construct: chimeric receptors containing the LBD of various NRs; expressed in transfected cells; host or cells: HEK293
T1 sequence (Q07869 239-466 limits assumed): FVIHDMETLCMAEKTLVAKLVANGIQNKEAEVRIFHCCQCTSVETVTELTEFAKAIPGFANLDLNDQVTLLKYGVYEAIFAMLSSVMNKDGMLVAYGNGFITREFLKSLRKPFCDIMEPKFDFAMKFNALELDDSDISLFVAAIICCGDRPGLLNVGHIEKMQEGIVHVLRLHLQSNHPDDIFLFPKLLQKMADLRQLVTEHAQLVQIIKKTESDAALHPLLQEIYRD

full-length PPARδ = molecular target: T2, full-length PPARδ (Homo sapiens, UniProt Q03181); assay: full-length PPARδ PPRE luciferase reporter assay in HEK293 cells; type: cell-based; conditions: Fig. 1C
T2 construct: expressed in transfected cells; host or cells: HEK293
T2 sequence (Q03181 1-441): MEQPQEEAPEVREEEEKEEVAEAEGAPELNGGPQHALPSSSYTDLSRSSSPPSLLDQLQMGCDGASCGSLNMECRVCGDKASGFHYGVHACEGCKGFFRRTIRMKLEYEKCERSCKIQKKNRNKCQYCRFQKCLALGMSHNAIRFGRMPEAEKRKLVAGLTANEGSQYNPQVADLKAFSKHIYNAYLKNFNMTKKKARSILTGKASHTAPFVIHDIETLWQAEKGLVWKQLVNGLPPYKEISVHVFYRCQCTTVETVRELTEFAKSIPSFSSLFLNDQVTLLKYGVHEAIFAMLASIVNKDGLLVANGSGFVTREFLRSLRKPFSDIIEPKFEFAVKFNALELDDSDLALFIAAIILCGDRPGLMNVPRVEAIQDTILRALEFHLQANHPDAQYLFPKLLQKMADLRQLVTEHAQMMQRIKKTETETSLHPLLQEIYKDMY
Text: Luciferase activities were normalized to β-galactosidase activities.

VP16-PPARα / GAL4-SRC-1 = molecular target: T3, VP16-PPARα / GAL4-SRC-1 (Homo sapiens, UniProt Q07869); assay: mammalian two-hybrid assay, VP16-PPARα and coactivator GAL4-SRC-1; type: cell-based; conditions: 30 μM fatty acids, 1 μM GW7647, HEK293 cells, Fig. 3B
T3 construct: expressed in transfected cells; host or cells: HEK293
T3 sequence (Q07869 1-468): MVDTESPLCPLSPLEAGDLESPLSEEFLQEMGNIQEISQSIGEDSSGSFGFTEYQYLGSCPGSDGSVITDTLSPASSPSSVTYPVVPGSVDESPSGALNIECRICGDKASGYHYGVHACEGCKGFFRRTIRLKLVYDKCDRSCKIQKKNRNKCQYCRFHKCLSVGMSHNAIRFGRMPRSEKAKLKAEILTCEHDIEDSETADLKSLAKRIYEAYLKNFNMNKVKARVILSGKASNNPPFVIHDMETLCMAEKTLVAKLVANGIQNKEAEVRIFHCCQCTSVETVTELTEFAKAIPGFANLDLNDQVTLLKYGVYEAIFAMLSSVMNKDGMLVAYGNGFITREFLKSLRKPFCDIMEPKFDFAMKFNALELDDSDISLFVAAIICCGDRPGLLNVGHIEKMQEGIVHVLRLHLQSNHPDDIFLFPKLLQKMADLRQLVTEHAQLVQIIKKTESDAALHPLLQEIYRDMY
T3 sequence (Q15788 595-771 partner limits assumed): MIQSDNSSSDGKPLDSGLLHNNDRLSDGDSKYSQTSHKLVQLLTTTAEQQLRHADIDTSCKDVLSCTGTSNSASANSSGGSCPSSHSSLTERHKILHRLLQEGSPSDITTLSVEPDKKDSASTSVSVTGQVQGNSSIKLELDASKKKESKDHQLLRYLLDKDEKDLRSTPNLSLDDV

full-length PPARα = full-length PPARα (Homo sapiens, UniProt Q07869); conditions: PPRE luciferase reporter, HEK293 cells, Fig. 1C
VP16-PPARδ / GAL4-NCoR = molecular target: T4, VP16-PPARδ / GAL4-NCoR (Homo sapiens, UniProt Q03181); assay: mammalian two-hybrid assay, VP16-PPARδ and corepressor NCoR; type: cell-based; conditions: 30 μM fatty acids, HEK293 cells, Fig. 3C
T4 construct: expressed in transfected cells; host or cells: HEK293
T4 sequence (Q03181 1-441): T2 sequence (Q03181 1-441)

VP16-PPARα / GAL4-NCoR = molecular target: T5, VP16-PPARα / GAL4-NCoR (Homo sapiens, UniProt Q07869); assay: mammalian two-hybrid assay, VP16-PPARα and corepressor NCoR; type: cell-based; conditions: 30 μM fatty acids, HEK293 cells, Fig. 3D
T5 construct: expressed in transfected cells; host or cells: HEK293
T5 sequence (Q07869 1-468): T3 sequence (Q07869 1-468)

[1] = tested on: human intestinal organoids; assay: PPARδ target gene mRNA expression in human intestinal organoids (RT-qPCR); type: cell-based; conditions: 1 μM GW1516 or 30 μM fatty acids for 24 h

EC50 (GAL4-PPARα LBD) [µM]	transactivation of full-length PPARδ (in words) (full-length PPARδ)	recruitment of coactivator SRC-1 to PPARα (VP16-PPARα / GAL4-SRC-1)	transactivation of full-length PPARα (in words) (full-length PPARα)	interaction between PPARδ and corepressor NCoR (VP16-PPARδ / GAL4-NCoR)	interaction between PPARα and corepressor NCoR (VP16-PPARα / GAL4-NCoR)	SMILES	expression of PPARδ target genes (CPT1A, HMGCS2, PDK4, ACSL1) [1]
11	not	not	activated almost equally	–	–	CCCCC/C=C\C/C=C\C/C=C\CCCCC(=O)O [GLA, γ-linolenic acid, reference compound]	–
2.84	activated PPARδ potently	induced coactivator-recruitment	–	reduced the interaction	reduced the interaction	CCCCCC(O)CCC=CCC=CCCCCC(=O)O (stereo not drawn) [γHYD, 13-hydroxy-cis-6,cis-9-octadecadienoic acid]	increased the expression of PPARδ target genes
4.14	activated PPARδ potently	induced coactivator-recruitment	–	reduced the interaction	reduced the interaction	CCCCCC(=O)CCC=CCC=CCCCCC(=O)O [γKetoD, 13-oxo-cis-6,cis-9-octadecadienoic acid]	increased the expression of PPARδ target genes

Reference: publication PMC9636582 (The Journal of Biological Chemistry, 2022)
